According to patent US20100099762A1, “COMBINATION THERAPY” (THE MENTAL HEALTH RESEARCH INSTITUTE OF VICTORIA, priority 2006, published 2010):

Tests used:
[1] = tested on: total glutathione levels; assay: Total glutathione in striatum and liver of rats after CHX depletion; type: in vivo, Sprague-Dawley rats; conditions: 400 mg/kg i.p. 90 minutes after CHX 75 mg/kg; killed 1 hour after treatment
Method: Male Sprague-Dawley rats aged nine weeks and weighing an average of 390 g, were used in the study. Animals were maintained on a twelve hour light-dark cycle with water and food ad libitum. Two animals were housed per cage with room temperature maintained at 22° C.
All pharmacological agents were administered by intraperitoneal injection (i.p.) in a volume of 1 ml/kg, except where otherwise stated. All agents were prepared using saline as a diluent. Brain GSH depletion was performed using cyclohexene-1-one (CHX), administered at 75 mg/kg. Animals were returned to their cage for 90 minutes prior to administration of N-acetyl cysteine (NAC) or N-acetyl cysteine amide (NACA or “AD4”). Animals were killed by decapitation 1 hour after NACA or NAC treatment.
Frontal cortex, striatum and liver samples were immediately excised on ice, weighed and sonicated in SSA buffer (5% sulfosalicylic acid in 100 mM disodium hydrogen orthophosphate, 100 mM sodium dihydrogen orthophosphate and 1 mM EDTA, pH 7.5, 5 mL/g wet tissue). The samples were subsequently centrifuged (22×10^3 g for 10 minutes, 4° C.) and the […] was taken and frozen at −80° C. until analysed.
Total glutathione levels (μmol GSH/gram tissue) were determined in all samples. Samples were assayed according to Baker et al. (1990). Reduced glutathione standards ranging from 0 to 320 ρmol of GSH in 50 μL were prepared in a background buffer identical to the samples (SSA buffer) and then treated in parallel with samples. 50 μl of sample or standard was placed on a 96-well microtiter plate with 100 μL of assay reagent (final concentration in well; 0.15 mM DTNB, 0.2 mM NADPH, 1.0 U glutathione reductase/mL). Plates were assayed for a total of 2 minutes at 414 nm using a Multiskan MCC/340 MK II plate reader and Genesis V3.05 computer software. All chemicals were purchased from Sigma-Aldrich. Statistical evaluation of the data was conducted using analysis of variance (ANOVA).

[2] = tested on: plasma glutathione; assay: Parallel study of plasma glutathione at the trial dose of NAC; type: in vivo; conditions: NAC at this dose (2 g daily)
[3] = oral NAC; cited from earlier work

For `CC(=O)N[C@@H](CS)C(=O)O` [NAC, N-acetyl cysteine], the “Total glutathione levels in the brain striatum after CHX depletion” value [1] was “rescue”, the “Total glutathione levels in the liver after CHX depletion” value [1] was “rescue” and the Plasma glutathione [2] was “significantly increased”. The Plasma half-life [3] was 2 to 3 h.
